From patent publication US6642250B2, “1,8-naphthyridin-2(1H)-one derivatives” (Grelan Pharmaceutical Co., Ltd., priority 1999, dated 2003) come the findings set out here.

pIC50: −log10 of the molar value.

For one series, the system named is PDE I. Put plainly: PDE inhibition, type I PDE (cGMP substrate, calmodulin/CaCl2 added). The series is classed as biochemical. The following applies: PDE I from porcine hearts, cGMP 1 μM; read-out: Inhibition of PDE Isoenzymes (IC50) I. Here is the method:
(§1) The assays for PDE activity were conducted according to Nicholson et al. method (Br. J. Pharmacol., 97, 889 (1989)).
(§2) Among PDE isozymes, type I, II, III and IV PDEs as used herein were separated from porcine hearts by using an anion exchange chromatography. Type V PDE was also separated from porcine aortae with an anion exchange chromatography and used herein.
(§3) Each PDE isozyme was admixed with ethylene glycol (EG) to adjust the final EG concentration to 30%, then stored at −20° C. and diluted when used. The enzymatic activity for PDE I and V was measured using cGMP as a substrate while that for POE II, III and IV was measured using cAMP.
(§4) [^3H]-cAMP (962 GBq/mmol; Amersham, 25 μl (100,000 cpm)) or [^3H]-cGMP (962 GBq/mmol; Amersham, 25 μl (100,000 cpm)) was added together with each PDE isozyme (25 μl) to an incubation buffer solution with the composition given below to adjust the total volume to 250 μl. Each test compound was dissolved in DMSO to adjust the final concentration to 1% (2.5 μl/tube).
(§5) Incubation buffer solution (pH7.5):
(§6) Tris-HCl (50 mM), magnesium chloride (6 mM), dithiothreitol
(§7) (2.5 mM), 5-nucleotidase (4 μg/ml), bovine serum albumin
(§8) (0.23 mg/ml), and cAMP (1 μM) [or cGMP (1 μM)]
(§9) A mixture of the aforementioned test compound solution and the buffer solution was incubated at 30° C. for 20 minutes. The reaction was quenched by admixing with 1 ml of anion exchange resin slurry (AG1-X8, 200-400 meshes, chloride form; Bio-Rad) to absorb unreacted substrates.
(§10) After the reaction stopped, the mixture was centrifuged at 200×g for 10 minutes, and the resulting supernatant was collected with vials in 250 μl aliquots. To each vial was added 5 ml of ACS-II (scintillator, Amersham). The radioactivity was measured with a liquid scintillator counter for [^3H]-adenosine or [^3H]-guanosine and set as the PDE activity. The measurements were conducted under conditions wherein the enzymatic activity was elevated by adding calmodulin (20 U/ml; Amersham) and calcium chloride (0.1 mM) for PDE-I and cGMP (1 μM) for PDE II, respectively.
(§11) The % inhibition was calculated for test compounds, and IC50 (the concentration of each test compound required for 50% inhibition) was obtained by Probit method. The aforementioned rolipram ((−)-isomer, optical purity: 91% e.e.) known as the PDE IV inhibitor in the prior art was used for the reference compound in this assay.

For another series, the target named is T1, PDE II (Sus scrofa, UniProt F1SUV3).
T1 sequence (F1SUV3 1-945): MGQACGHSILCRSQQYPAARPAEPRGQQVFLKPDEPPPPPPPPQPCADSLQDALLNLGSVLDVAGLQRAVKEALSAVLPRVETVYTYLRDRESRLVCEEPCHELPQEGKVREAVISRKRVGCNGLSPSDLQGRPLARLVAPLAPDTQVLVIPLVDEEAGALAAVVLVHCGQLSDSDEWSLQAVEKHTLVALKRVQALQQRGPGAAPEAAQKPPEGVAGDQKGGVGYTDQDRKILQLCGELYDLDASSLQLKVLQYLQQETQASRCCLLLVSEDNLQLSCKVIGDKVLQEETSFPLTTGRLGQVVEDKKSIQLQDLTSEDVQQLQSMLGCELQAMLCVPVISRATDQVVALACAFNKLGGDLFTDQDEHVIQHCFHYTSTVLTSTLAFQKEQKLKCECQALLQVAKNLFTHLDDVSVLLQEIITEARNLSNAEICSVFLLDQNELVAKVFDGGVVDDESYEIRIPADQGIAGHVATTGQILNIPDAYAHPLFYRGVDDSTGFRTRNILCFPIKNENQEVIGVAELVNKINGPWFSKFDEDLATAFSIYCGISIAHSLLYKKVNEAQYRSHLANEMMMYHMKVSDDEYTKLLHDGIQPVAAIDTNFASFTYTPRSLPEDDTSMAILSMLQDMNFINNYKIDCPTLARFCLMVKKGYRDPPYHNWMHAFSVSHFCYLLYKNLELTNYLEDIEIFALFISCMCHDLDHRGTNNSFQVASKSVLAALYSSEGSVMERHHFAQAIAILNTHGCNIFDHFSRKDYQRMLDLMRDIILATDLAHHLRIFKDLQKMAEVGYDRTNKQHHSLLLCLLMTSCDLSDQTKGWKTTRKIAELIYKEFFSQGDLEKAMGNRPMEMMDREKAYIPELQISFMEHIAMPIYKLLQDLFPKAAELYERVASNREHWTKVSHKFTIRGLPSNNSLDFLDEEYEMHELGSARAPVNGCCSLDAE
As to the kind of experiment: PDE inhibition, type II PDE (cAMP substrate, cGMP added). The series is classed as biochemical. The following applies: PDE II from porcine hearts, cAMP 1 μM; read-out: Inhibition of PDE Isoenzymes (IC50) II. Here is the method:
as §1, §2, §3, §4, §5, §6, §7, §8, §9, §10, §11

The test system of a further series is T2, PDE IV.
T2 construct: other: PDE IV from porcine hearts, cAMP 1 μM
Put plainly: PDE inhibition, type IV PDE (cAMP substrate). The following applies: PDE IV from porcine hearts, cAMP 1 μM; read-out: Inhibition of PDE Isoenzymes (IC50) IV. The series is classed as biochemical. Here is the method:
as §1, §2, §3, §4, §5, §6, §7, §8, §9, §10, §11
Further, for a comparison with compounds as disclosed in JP, A, 63-159382 (1988), the PDE-inhibiting activity was also measured for Compounds A and D in Table 1 of JP, A, 63-159382 (1988).

The next series concerns the target T3, PDE V (Sus scrofa, UniProt A0A287B475).
T3 construct: Type V PDE was also separated from porcine aortae with an anion exchange chromatography and used herein
Put plainly: PDE inhibition, type V PDE (cGMP substrate). The series is classed as biochemical. The settings on record: PDE V from porcine aortae, cGMP 1 μM; read-out: Inhibition of PDE Isoenzymes (IC50) V. Here is the method: as §1, §2, §3, §4, §5, §6, §7, §8, §9, §10, §11

Usually melting point stands for the temperature of the solid-liquid transition. `CS(=O)(=O)c1cccc(-n2c(=O)c(CCCc3ccncc3)cc3cccnc32)c1` [Example 26, 1-(3-Methylsulfonylphenyl)-3-[3-(pyridin-4-yl)propyl]-1,8-naphthyridin-2(1H)-one] showed a melting point of 127 to 131 °C.

By pIC50 is commonly meant the IC50 on a negative log10 scale, so that one unit is a factor of ten. The compound `O=c1c(CCCCc2ccccn2)cc2cccnc2n1-c1cccc([N+](=O)[O-])c1` [Example No. 13, 1-(3-Nitrophenyl)-3-[4-(pyridin-2-yl)butyl]-1,8-naphthyridin-2(1H)-one] gave a melting point of 163 to 165 °C. In addition, in the series on PDE I, the pIC50 was 4.21. Further, the pIC50 on PDE II was 4.22. In addition, the pIC50 in the series on PDE IV is 5.92. For the same compound, at PDE V, the pIC50 is 4.89.

Compound `O=c1c(CCCc2ccncc2)cc2cccnc2n1-c1cccc(Cl)c1` [Example 9, 1-(3-Chlorophenyl)-3-[3-(pyridin-4-yl)propyl]-1,8-naphthyridin-2(1H)-one] showed a melting point of 148 to 149 °C.

`O=c1c(CCc2nc3ccccc3s2)cc2cccnc2n1-c1cccc([N+](=O)[O-])c1` [Example 29, 1-(3-Nitrophenyl)-3-[2-(benzothiazol-2-yl)ethyl]-1,8-naphthyridin-2(1H)-one] yielded a melting point of 178 to 179 °C.

With `Cc1ccc2cc(CCCc3ccncc3)c(=O)n(-c3cccc([N+](=O)[O-])c3)c2n1` [Example 11, 7-Methyl-1-(3-nitrophenyl)-3-[3-(pyridin-4-yl)propyl]-1,8-naphthyridin-2(1H)-one], the melting point is 165 to 166 °C.

Take `O=c1c(CCCCCCCc2ccncc2)cc2cccnc2n1-c1cccc([N+](=O)[O-])c1` [Example 18, 1-(3-Nitrophenyl)-3-[7-(pyridin-4-yl)heptyl]-1,8-naphthyridin-2(1H)-one]: the melting point lay within 189 to 192 °C.

Regarding `O=c1c(CCCCCc2ccncc2)cc2cccnc2n1-c1cccc([N+](=O)[O-])c1` [Example No. 17, 1-(3-Nitrophenyl)-3-[5-(pyridin-4-yl)pentyl]-1,8-naphthyridin-2(1H )-one], the melting point lay in the range of 188.8 to 189.6 °C. The negative logarithm of the IC50 (pIC50) with PDE I was less than 4.00. Moreover, on PDE II, the pIC50 is less than 4.00. In addition, the pIC50 with PDE IV is 5.66. Also, the pIC50 on PDE V was less than 4.00.

`O=c1c(Cc2ccncc2)cc2cccnc2n1-c1cccc([N+](=O)[O-])c1` [Example 4, 1-(3-Nitrophenyl)-3-(pyridin-4-ylmethyl)-1,8-naphthyridin-2(1H)-one] gave a melting point of 230 °C.

The compound `O=c1c(CCCc2ccco2)cc2cccnc2n1-c1cccc([N+](=O)[O-])c1` [Example 20, 1-(3-Nitrophenyl)-3-[3-(2-furyl)propyl]-1,8-naphthyridin-2(1H)-one] registered a melting point of 166 to 167 °C.

Take `O=c1c(CCCCc2ccncc2)cc2cccnc2n1-c1cccc([N+](=O)[O-])c1` [Example No. 15, 1-(3-Nitrophenyl)-3-[4-(pyridin-4-yl)butyl]-1,8-naphthyridin-2(1H)-one]: the melting point was 168.8 to 169.6 °C. Moreover, the pIC50 in the series on PDE I is 4.00. For the same compound, on PDE II, the pIC50 was 4.33. The pIC50 in the series with PDE IV was 5.85. Besides, at PDE V, the negative-log IC50 (pIC50) is 5.06.

As to `N#Cc1cccc(-n2c(=O)c(Cc3ccncc3)cc3cccnc32)c1` [Example No. 3, 1-(3-Cyanophenyl)-3-(pyridin-4-ylmethyl)-1,8-naphthyridin-2(1H)-one], the melting point lay within 229 to 230 °C. Moreover, the pIC50 in the series with PDE I is less than 4.00. On PDE II, the pIC50 was less than 4.00. The pIC50 with PDE IV was 5.92. Also, the pIC50 on PDE V was 5.41.

Consider `N#Cc1cccc(-n2c(=O)c(CCCc3ccncc3)cc3cccnc32)c1` [Example 25, 1-(3-Cyanophenyl)-3-[3-(pyridin-4-yl)propyl]-1,8-naphthyridin-2(1H)-one], for which the melting point was in the range of 202 to 203.5 °C.

In the case of `CSc1cccc(-n2c(=O)c(CCCc3ccncc3)cc3ccc(C)nc32)c1` [Example 12, 7-Methyl-1-(3-methylthiophenyl)-3-[3-(pyridin-4-yl)propyl]-1,8-naphthyridin-2(1H)-one], the melting point lay in the range of 158 to 159 °C.

In turn, `O=c1c(Cc2ccccn2)cc2cccnc2n1-c1cccc([N+](=O)[O-])c1` [Example 1, 1-(3-Nitrophenyl)-3-(pyridin-2-ylmethyl)-1,8-naphthyridin-2(1H)-one] yielded a melting point of 229 to 231 °C.

The compound `O=c1c(CCCc2ccoc2)cc2cccnc2n1-c1cccc([N+](=O)[O-])c1` [Example 21, 1-(3-Nitrophenyl)-3-[3-(3-furyl)propyl]-1,8-naphthyridin-2(1H)-one] showed a melting point of 185 to 186 °C.

`O=c1c(CCCc2nccs2)cc2cccnc2n1-c1cccc([N+](=O)[O-])c1` [Example 31, 1-(3-Nitrophenyl)-3-[3-(thiazol-2-yl)propyl]-1,8-naphthyridin-2(1H)-one] came in with a melting point of 198 to 199 °C.

Turning to `O=c1c(CCCc2ccccn2)cc2cccnc2n1-c1cccc([N+](=O)[O-])c1` [Example 28, 1-(3-Nitrophenyl)-3-[3-(pyridin-2-yl)propyl]-1,8-naphthyridin-2(1H)-one], the melting point was 201 to 202 °C.

As to `O=c1c(CCCc2nc3ccccc3s2)cc2cccnc2n1-c1cccc([N+](=O)[O-])c1` [Example 30, 1-(3-Nitrophenyl)-3-[3-(benzothiazol-2-yl)propyl]-1,8-naphthyridin-2(1H)-one], the melting point fell in the range of 185 to 186 °C.

Regarding `O=c1c(CCc2cccs2)cc2cccnc2n1-c1cccc([N+](=O)[O-])c1` [Example 19, 1-(3-Nitrophenyl)-3-[2-(2-thienyl)ethyl]-1,8-naphthyridin-2(1H)-one], the melting point lay in the range of 175 to 176 °C.

Compound `O=c1c(CCCCc2nc3ccccc3s2)cc2cccnc2n1-c1cccc([N+](=O)[O-])c1` [Example 22, 1-(3-Nitrophenyl)-3-[4-(benzothiazol-2-yl)butyl]-1,8-naphthyridin-2(1H)-one] registered a melting point of 167.5 to 169.5 °C.
